Assay results reported in ChEMBL document CHEMBL1201862, “PubChem BioAssay data set” (2004).
Activity calls are given as the source filed them.

Tests used:
SUMO-activating enzyme [1] = biological target: T1, SUMO-activating enzyme (Homo sapiens, UniProt Q9UBT2); test: SUMOylation inhibitor hit validation, confirmation, SUMOylation inhibitor project, biochemical, AlphaScreen (AID 2018); type: functional
SUMO-activating enzyme [2] = biological target: T1, SUMO-activating enzyme; test: inhibitors of in vitro SUMOylation cascade, primary screen, biochemical, HTRF, uHTS (AID 2006); type: protein-complex assay
[3] = biological target: T2, Calpain-2 catalytic subunit (Sus scrofa, UniProt P43367); test: pig calpain II inhibitor potency, dose response, biochemical, fluorogenic peptide substrate (AID 1420); type: functional
T2 sequence (P43367 whole entry): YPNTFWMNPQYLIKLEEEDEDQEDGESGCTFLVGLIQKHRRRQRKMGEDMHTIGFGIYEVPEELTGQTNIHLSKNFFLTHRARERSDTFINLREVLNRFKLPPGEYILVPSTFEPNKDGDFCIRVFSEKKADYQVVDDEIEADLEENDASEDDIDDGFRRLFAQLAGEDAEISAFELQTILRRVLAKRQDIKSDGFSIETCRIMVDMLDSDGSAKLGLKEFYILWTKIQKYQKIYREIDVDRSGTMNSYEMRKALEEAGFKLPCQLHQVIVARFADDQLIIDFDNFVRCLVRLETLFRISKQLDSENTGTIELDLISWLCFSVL

[4] = biological target: Bifunctional protein GlmU (Mycobacterium tuberculosis, UniProt P9WMN3); test: Inhibitors of Mycobacterial Glucosamine-1-phosphate acetyl transferase (GlmU). Secondary screen.; set-up: species or system Mycobacterium tuberculosis H37Rv
[5] = biological target: Induced myeloid leukemia cell differentiation protein Mcl-1 (Homo sapiens, UniProt Q07820); type: functional
Caspase-6 = biological target: T3, Caspase-6 (Homo sapiens, UniProt P55212); test: human caspase-6 inhibitors, dose response, biochemical, VEID-R110 fluorescence, cherry-pick (AID 720632)
T3 sequence (P55212 whole entry): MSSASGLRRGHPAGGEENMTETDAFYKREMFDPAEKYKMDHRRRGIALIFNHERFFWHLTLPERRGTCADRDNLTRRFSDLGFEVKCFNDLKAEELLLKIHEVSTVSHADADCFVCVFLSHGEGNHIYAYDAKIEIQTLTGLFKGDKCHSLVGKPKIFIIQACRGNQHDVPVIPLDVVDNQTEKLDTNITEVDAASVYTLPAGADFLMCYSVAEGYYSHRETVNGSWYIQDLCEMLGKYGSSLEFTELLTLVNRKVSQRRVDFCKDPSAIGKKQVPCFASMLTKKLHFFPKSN

Aspartyl aminopeptidase = Aspartyl aminopeptidase (Plasmodium falciparum 3D7, UniProt Q8I2J3); test: Counterscreen for inhibitors of M1 and M17 aminopeptidases: QFRET-based biochemical high throughput dose response assay for inhibitors of the Plasmodium falciparum M18 Aspartyl Aminopeptidase (PFM18AAP). [Related PubChem assays: 1619 (Screening assay (M17LAP inhibitors).), 1445 (Screening assay (M1AAP inhibitors).)]
Aminopeptidase N = biological target: T4, Aminopeptidase N (Plasmodium falciparum FcB1/Columbia, UniProt O96935); test: P. falciparum M1AAP inhibitors, biochemical, fluorogenic H-Leu-NHMec substrate, 1536-well (AID 1445); set-up: species or system Plasmodium falciparum 3D7, 3D7
T4 sequence (O96935 whole entry): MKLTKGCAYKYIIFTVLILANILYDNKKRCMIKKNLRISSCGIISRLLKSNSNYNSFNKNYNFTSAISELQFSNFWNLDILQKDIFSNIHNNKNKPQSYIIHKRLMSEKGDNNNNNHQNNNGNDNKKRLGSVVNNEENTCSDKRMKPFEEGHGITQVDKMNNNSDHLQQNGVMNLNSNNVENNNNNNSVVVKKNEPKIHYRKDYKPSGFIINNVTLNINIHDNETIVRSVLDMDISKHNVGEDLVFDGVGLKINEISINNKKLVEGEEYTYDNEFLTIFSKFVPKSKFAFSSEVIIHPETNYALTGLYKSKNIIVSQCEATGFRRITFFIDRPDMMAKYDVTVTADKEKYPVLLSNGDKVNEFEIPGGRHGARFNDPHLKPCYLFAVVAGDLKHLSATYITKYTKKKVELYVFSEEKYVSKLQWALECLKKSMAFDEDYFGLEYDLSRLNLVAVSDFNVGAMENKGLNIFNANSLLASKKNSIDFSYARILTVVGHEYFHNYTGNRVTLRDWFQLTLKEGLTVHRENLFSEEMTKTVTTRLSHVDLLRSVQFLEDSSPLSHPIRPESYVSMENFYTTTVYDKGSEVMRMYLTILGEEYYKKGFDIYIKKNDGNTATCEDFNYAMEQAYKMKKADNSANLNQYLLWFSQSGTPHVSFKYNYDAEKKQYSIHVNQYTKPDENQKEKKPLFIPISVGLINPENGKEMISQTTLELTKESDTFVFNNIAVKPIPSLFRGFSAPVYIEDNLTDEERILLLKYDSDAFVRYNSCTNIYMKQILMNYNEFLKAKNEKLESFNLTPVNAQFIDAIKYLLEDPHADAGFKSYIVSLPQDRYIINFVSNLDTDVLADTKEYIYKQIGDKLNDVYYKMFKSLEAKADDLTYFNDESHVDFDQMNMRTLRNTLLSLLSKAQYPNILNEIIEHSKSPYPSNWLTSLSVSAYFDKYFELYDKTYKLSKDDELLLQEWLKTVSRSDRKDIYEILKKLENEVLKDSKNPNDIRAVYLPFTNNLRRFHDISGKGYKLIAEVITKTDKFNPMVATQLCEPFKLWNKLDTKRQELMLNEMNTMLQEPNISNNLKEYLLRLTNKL

Procathepsin L = Procathepsin L (Homo sapiens, UniProt P07711); test: cathepsin L inhibitors, dose response, counter-screen for M1/M17 aminopeptidase inhibitor project, biochemical, QFRET, 1536-well (AID 2214)
[6] = biological target: Voltage-gated inwardly rectifying potassium channel KCNH2 (Homo sapiens, UniProt Q12809); test: hERG protection from proarrhythmic block, potency, dose response, cell-based, thallium flux (AID 2121); type: ADME
[7] = inhibitors of firefly luciferase expression or activity, dose response, H4 neuroglioma cells, luminescence (AID 1990); type: functional, cell-based
[8] = luciferase reporter signal reduction – luminescence, H4-C neuroglioblastoma cells, dose response (AID 2458); type: functional, cell-based;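 note: H4 neuroglioblastoma cells stably carrying a luciferase reporter gene fusion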
[9] = biological target: T5, RNA-binding protein pos-1 (Caenorhabditis elegans, UniProt G5EF15); test: inhibitors of POS-1/mex-3 RNA binding, dose response, biochemical, fluorescence polarization (AID 1964);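 note: purified POS-1 fused to maltose binding protein made in E. coli; potency of compounds blocking POS-1 binding to fluorescent RNA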
T5 sequence (G5EF15 whole entry): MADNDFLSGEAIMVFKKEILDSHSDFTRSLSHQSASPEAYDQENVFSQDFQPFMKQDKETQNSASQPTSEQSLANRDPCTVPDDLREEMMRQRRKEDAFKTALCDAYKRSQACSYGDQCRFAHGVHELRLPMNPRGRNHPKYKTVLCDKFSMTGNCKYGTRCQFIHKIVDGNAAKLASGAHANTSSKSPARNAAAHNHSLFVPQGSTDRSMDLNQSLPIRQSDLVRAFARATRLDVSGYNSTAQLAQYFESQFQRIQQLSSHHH

[10] = Luminescence Cell-Based Dose Response HTS to Identify Inhibitors of 5'UTR Stem-Loop Driven Prion Protein mRNA Translation in H4 Neuroglioblastoma Cells. [Related pubchem assays: 1827 (Project Summary), 1813 (Primary HTS)]; type: functional
[11] = biological target: T6, Zinc finger protein mex-5 (Caenorhabditis elegans, UniProt Q9XUB2); test: MEX-5/TCR-2 RNA interaction inhibitors, dose response, biochemical, C. elegans, fluorescence polarization (AID 1960)
T6 sequence (Q9XUB2 whole entry): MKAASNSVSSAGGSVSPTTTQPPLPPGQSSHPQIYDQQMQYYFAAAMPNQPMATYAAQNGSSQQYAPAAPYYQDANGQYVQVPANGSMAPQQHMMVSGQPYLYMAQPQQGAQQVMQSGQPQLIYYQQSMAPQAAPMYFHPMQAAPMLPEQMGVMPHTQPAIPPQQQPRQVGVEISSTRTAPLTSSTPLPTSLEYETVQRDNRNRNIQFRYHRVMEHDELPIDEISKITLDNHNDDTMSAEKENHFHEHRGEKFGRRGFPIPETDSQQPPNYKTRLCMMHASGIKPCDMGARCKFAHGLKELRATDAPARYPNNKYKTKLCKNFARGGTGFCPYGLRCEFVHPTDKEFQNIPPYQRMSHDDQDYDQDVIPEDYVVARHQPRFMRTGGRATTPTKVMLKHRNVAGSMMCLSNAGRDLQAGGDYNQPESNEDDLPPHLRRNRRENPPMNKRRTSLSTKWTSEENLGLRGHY

[12] = inhibitors of SNCA 5'UTR-driven reporter translation, confirmation, H4 neuroglioma cells, luminescence (AID 1988); type: functional, cell-based
[13] = inhibitors of SNCA 5'UTR-driven translation, confirmation, luminescence, H4 neuroglioblastoma cells, dose confirmation (AID 2454); type: functional, cell-based;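 note: H4 neuroglioblastoma cells carrying an alpha-synuclein 5'UTR luciferase reporter; potency for inhibition of the luciferase signal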
[14] = biological target: Glucose-6-phosphate 1-dehydrogenase (Homo sapiens, UniProt P11413); test: human G6PD enzyme inhibitors, dose response, selectivity assay for P. falciparum G6PD inhibitor project, biochemical, fluorescence (AID 504792); type: functional
Cytochrome P450 2C19 = Cytochrome P450 2C19 (Homo sapiens, UniProt P33261); test: qHTS Assay for Inhibitors and Substrates of Cytochrome P450 2C19. [Related pubchem assays: 410 ]; type: ADME; conditions: read-out: Potency
Cytochrome P450 2C9 = Cytochrome P450 2C9 (Homo sapiens, UniProt P11712); conditions: Potency
Vero [15] = test: cytotoxicity of synthesized analogs in Vero cells, SAR follow-up, cytotoxicity control for West Nile virus antiviral project, cell-based, set II (AID 2402); type: functional; conditions: Chlorocebus sabaeus
[16] = Luminescence Cell-Based Dose Response to Identify Activators of 5'UTR Stem-Loop Driven Prion Protein mRNA Translation in H4-C Neuroglioblastoma Cells. [Related pubchem assays: 1829 (Project Summary), 1814 (Primary HTS)]; type: functional
[17] = Luminescence Cell-Based Dose Confirmation HTS to Identify Activators of 5'UTR Stem-Loop Driven Alpha-Synuclein mRNA Translation in H4 Neuroglioblastoma Cells. [Related pubchem assays: 1829 (Project Summary), 1814 (Primary HTS)]; type: functional
H4 = test: Luminescence Cell-Based Dose Response HTS to Identify Activators of 5'UTR Stem-Loop Driven Prion Protein mRNA Translation in H4 Neuroglioblastoma Cells. [Related pubchem assays: 1829 (Project Summary), 1814 (Primary HTS)]; type: functional; conditions: Homo sapiens
[18] = Luminescence Cell-Based Dose Response to Identify Activators of Luciferase Translation or Activity in H4-C Neuroglioblastoma Cells. [Related pubchem assays: 1829 (Project Summary), 1814 (Primary HTS)]; type: functional
[19] = Luminescence Cell-Based Dose Confirmation to Identify Activators of 5'UTR Stem-Loop Driven Alpha-Synuclein mRNA Translation in H4 Neuroglioblastoma Cells. [Related pubchem assays: 1829 (Project Summary), 1814 (Primary HTS)]; type: functional
[20] = A Cell Based Secondary Assay To Explore Cytotoxicity of Compounds that Sensitize Mycobacterium Tuberculosis to Beta-Lactam Antibiotics.; type: functional
Vero [21] = test: West Nile virus antiviral activity, cell-based, CPE readout (AID 1621); type: functional; conditions: Chlorocebus sabaeus
Vero [22] = test: cells; type: functional, cell-based; conditions: Chlorocebus sabaeus
[23] = biological target: Diphosphomevalonate decarboxylase (Streptococcus pneumoniae serotype 2 (strain D39 / NCTC 7466), UniProt Q9FD53); test: S. pneumoniae DPM-DC inhibition retest, confirmation, biochemical, cuvette format, coupled NADH fluorescence (AID 1028); type: functional
Chain of Diphosphomevalonate decarboxylase (Q9FD53 whole entry): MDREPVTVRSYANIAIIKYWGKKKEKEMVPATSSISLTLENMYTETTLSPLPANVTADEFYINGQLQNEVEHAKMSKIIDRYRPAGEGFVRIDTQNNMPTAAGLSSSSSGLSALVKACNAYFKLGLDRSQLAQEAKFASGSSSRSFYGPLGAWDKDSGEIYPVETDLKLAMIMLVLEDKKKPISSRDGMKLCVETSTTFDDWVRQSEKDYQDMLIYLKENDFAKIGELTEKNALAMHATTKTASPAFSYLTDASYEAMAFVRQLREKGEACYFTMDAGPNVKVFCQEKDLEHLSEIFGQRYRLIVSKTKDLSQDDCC

T1 sequence (Q9UBE0 whole entry): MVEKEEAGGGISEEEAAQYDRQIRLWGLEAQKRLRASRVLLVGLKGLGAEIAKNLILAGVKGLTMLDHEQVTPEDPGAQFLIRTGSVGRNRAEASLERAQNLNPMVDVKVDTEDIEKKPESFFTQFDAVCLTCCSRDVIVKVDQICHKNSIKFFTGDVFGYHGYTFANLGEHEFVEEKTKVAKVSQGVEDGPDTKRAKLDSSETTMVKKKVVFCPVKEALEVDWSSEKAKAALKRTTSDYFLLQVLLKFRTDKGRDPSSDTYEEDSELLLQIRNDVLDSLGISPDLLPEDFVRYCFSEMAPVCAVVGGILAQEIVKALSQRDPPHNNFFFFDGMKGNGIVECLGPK
T1 sequence (Q9UBT2 whole entry): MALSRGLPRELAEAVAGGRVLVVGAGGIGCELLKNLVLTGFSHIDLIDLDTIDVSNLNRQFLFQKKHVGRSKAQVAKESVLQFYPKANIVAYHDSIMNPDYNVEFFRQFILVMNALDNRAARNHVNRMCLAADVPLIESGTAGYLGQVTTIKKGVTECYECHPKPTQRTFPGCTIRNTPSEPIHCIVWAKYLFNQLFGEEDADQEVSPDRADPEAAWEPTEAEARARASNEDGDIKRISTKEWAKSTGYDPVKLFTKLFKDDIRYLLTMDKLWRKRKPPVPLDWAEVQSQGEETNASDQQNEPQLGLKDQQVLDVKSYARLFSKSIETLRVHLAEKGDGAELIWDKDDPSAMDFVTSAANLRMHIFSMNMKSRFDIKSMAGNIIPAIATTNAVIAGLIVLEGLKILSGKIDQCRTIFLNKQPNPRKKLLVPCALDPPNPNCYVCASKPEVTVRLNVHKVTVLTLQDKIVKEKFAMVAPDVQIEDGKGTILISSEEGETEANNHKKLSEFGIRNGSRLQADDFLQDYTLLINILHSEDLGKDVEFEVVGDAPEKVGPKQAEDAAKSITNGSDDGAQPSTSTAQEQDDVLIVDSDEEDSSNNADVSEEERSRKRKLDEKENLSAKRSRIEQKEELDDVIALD
Chain of Aspartyl aminopeptidase (Q8I2J3 whole entry): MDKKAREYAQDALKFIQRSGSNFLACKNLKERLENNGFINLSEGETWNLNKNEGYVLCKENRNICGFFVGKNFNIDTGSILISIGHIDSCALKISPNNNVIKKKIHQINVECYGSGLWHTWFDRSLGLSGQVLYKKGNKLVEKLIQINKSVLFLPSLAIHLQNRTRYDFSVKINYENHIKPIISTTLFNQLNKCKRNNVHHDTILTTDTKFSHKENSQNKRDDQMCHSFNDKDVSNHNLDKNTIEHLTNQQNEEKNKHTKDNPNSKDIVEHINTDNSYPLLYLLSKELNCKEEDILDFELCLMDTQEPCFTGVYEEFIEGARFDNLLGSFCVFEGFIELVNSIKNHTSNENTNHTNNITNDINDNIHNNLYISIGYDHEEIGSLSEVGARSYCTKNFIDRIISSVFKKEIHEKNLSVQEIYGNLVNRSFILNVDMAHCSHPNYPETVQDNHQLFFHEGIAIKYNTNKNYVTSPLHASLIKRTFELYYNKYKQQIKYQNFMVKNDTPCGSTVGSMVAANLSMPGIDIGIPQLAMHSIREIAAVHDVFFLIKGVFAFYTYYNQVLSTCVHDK
Chain of Voltage-gated inwardly rectifying potassium channel KCNH2 (Q12809 whole entry): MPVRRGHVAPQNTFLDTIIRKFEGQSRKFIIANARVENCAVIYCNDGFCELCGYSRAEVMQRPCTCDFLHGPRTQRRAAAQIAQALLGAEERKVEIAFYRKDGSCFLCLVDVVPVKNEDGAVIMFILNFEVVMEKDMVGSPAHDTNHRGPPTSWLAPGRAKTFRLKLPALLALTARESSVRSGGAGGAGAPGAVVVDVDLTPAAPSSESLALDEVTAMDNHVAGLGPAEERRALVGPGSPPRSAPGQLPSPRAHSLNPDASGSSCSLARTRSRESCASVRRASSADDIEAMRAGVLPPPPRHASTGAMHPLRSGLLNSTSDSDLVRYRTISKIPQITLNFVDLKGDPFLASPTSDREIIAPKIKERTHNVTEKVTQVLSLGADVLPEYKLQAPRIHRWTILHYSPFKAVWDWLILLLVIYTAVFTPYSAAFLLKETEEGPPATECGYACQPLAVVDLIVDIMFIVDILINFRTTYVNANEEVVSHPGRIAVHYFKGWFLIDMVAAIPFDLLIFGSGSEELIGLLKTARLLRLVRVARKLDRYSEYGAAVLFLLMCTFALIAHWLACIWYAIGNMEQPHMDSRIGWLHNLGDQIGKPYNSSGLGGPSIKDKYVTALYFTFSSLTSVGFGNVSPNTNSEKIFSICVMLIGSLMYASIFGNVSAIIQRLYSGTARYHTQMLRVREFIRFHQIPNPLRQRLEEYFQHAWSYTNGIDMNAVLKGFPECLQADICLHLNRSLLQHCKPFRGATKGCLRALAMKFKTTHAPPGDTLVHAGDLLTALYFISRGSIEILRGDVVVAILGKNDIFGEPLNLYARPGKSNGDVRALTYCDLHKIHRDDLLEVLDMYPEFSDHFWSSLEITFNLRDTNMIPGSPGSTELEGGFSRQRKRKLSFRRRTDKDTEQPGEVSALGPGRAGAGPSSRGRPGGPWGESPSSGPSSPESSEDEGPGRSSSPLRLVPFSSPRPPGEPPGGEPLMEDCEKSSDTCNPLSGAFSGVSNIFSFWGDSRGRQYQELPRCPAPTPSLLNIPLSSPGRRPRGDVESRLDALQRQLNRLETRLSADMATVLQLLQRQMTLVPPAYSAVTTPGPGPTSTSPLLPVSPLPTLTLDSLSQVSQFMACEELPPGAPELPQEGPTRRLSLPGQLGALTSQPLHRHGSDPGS
Chain of Cytochrome P450 2C19 (P33261 whole entry): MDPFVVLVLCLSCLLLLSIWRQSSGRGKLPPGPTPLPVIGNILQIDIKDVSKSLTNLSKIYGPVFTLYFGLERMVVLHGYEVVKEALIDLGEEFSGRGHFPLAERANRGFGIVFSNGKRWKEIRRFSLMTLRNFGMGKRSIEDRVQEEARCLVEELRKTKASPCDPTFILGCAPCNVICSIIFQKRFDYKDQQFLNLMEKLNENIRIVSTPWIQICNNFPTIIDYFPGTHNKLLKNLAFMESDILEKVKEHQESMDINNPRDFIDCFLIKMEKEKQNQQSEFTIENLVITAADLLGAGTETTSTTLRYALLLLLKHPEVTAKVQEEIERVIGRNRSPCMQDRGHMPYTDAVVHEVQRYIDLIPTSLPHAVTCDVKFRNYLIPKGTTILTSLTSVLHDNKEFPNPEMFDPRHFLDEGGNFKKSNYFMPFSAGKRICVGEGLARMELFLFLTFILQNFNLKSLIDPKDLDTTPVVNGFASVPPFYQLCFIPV
Chain of Glucose-6-phosphate 1-dehydrogenase (P11413 whole entry): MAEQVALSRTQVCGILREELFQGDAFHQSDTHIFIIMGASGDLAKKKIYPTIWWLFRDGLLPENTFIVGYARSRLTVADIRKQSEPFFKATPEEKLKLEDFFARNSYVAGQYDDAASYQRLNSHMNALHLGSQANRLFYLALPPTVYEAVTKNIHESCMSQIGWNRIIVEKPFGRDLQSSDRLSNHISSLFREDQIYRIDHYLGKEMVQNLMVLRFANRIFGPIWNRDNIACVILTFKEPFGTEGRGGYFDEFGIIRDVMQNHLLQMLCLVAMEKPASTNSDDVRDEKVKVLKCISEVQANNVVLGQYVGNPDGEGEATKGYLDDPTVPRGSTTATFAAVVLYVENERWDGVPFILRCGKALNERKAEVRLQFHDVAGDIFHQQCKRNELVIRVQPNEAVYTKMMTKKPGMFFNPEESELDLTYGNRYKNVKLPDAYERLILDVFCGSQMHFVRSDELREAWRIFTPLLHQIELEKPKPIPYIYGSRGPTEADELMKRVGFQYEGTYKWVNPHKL
Chain of Procathepsin L (P07711 whole entry): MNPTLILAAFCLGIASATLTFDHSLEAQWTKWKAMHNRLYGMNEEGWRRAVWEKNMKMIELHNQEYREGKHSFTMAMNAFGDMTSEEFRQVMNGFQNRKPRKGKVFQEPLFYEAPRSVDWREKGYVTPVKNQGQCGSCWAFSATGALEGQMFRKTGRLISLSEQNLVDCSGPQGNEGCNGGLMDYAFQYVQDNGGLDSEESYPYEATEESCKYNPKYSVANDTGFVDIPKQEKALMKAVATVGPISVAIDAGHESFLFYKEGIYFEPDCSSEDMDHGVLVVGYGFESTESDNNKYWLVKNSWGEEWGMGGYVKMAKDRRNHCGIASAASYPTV
Chain of Cytochrome P450 2C9 (P11712 whole entry): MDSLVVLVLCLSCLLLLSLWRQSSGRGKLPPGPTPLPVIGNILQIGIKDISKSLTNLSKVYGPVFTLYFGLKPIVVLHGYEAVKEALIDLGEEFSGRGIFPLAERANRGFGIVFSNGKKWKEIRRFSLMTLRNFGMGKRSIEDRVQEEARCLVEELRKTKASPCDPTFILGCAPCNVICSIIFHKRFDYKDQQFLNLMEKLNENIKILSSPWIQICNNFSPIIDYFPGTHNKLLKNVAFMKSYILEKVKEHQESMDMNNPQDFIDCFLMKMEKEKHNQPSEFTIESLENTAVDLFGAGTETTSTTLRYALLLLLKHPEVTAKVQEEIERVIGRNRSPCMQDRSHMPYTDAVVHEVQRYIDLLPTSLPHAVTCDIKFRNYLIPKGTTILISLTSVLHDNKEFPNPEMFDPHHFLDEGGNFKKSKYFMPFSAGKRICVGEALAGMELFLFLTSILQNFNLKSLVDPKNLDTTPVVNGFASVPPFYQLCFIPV

O=C(O)c1cccc(Cn2c(Cl)c(/C=N/NC(=O)c3cc4ccccc4cc3O)sc2=O)c1
IC50 (SUMO-activating enzyme [1]): 1.86 µM (active) | IC50 (SUMO-activating enzyme [2]): 24.1 µM (active) | IC50 [3]: > 50 µM (not active) | IC50 [4]: 134 µM (active) | IC50 [5]: 3.74 µM (active) | AC50 (Caspase-6): 18.1 µM (active)

COc1ccc(OC)c(/C=C2\SC(=S)N(C(C(=O)O)c3ccccc3)C2=O)c1 (stereo not given)
IC50 (Aspartyl aminopeptidase): > 73.5 µM (not active) | IC50 (Aminopeptidase N): 12.1 µM (active) | IC50 (Procathepsin L): > 59.6 µM (not active)

CCOC(=O)N1CCN(C(=O)c2ccc(CN(c3ccc(C)c(C)c3)S(C)(=O)=O)cc2)CC1
EC50 [6]: 9.85 µM (active)

Cc1ccc2nc3sc(C(=O)N4CCOCC4)c(N)c3cc2c1
EC50 [7]: 2.01 µM (active) | EC50 [8]: > 12 µM (inconclusive) | EC50 [9]: 46.8 µM (active) | EC50 [10]: < 0.1 µM (active) | EC50 [11]: > 300 µM (inconclusive) | EC50 [12]: 2.37 µM (active) | EC50 [13]: 0.927 µM (active) | IC50 [14]: > 80 µM (inactive)

CC(C)C[C@@H](CC(=O)N[C@@H](CCC(=O)O)CC(=O)O)NC(=O)[C@@H]1CNCC[C@H]1NC(=O)C[C@H](CCCN)NC(=O)C[C@H](CO)NC(=O)[C@@H]1CNCC[C@H]1N
AC50 (Cytochrome P450 2C19): 31.6 µM (inconclusive) | AC50 (Cytochrome P450 2C9): 25.1 µM (inconclusive)

OC1c2c(F)cccc2N=C2CCCN21 (stereo not given)
CC50 (Vero [15]): > 200 µM (active)

Cc1cc(-c2nnc(S)o2)c(C)n1-c1ccccc1
EC50 [16]: 2.02 µM (active) | EC50 [17]: < 0.1 µM (active) | EC50 (H4): 75.3 µM (active) | EC50 [18]: > 12 µM (not active) | EC50 [19]: 1.19 µM (active)

NC1=C(c2nc(-c3ccc(Cl)cc3)cs2)C(=O)CN1CCCN1CCOCC1
CC50 [20]: > 40 µM (active) | IC50 (Vero [21]): 24.2 µM (active) | IC50 (Vero [22]): 22 µM (active)

Cc1ccc(-n2sc3ccccc3c2=O)cc1C(=O)N1CCCCC1
IC50 [23]: 19.7 µM (active)
